Entries after “also recorded” stand apart in the source; their conditions may differ.
Columns and labels:
[1] = tested on: superficial femoral artery (SFA); assay: Shear rates in the SFA by Doppler ultrasound during 3 hours of sitting with oral Vitamin C (VIT trial); assay type: in vivo, human; settings: Mean ± SD
Experimental: Two screening visits and two sitting trials in random sequence, one with uninterrupted sitting (SIT) and one with oral Vitamin C during the sitting time (VIT) were conducted. Specifically, SIT represents prolonged 3 hours of sitting. VIT represents prolonged sitting with intermittent vitamin C. Flow mediated dilation (FMD) was measured at 0, 1, 2 and 3 hours. Subjects ingested 1 g vitamin C at 30 minutes and 500 mg at 1 hour 30 minutes. Subjects arrived at the laboratory after an overnight fast of at least 6 hours between 7:00 AM and 9:00 AM. The arrival time was matched for both trials within each subject. Subjects were also asked to refrain from any caffeinated drink for at least 8 hours before reporting to the lab. Upon their arrival in the lab, all subjects self-reported adhering to the fasting schedule. During both trials, the subjects remained seated for 3 hours without moving their legs or feet. Subjects were allowed to move their arms, not vigorously, for example to use a computer or do light reading during the non-testing periods of the trials. Arm movement was not quantified. The flow mediated dilation (FMD) and other vascular function parameters were measured at baseline, 1 hour, 2 hours and 3 hours into testing. The two trials were performed in random order, separated by a minimum of two and a maximum of seven days. The SIT trial was uninterrupted sitting for 3 hours, whereas in the VIT trial, subjects ingested two Vitamin C tablets; 1 g at 30 minutes and 500 mg at 1 hour 30 minutes during the sitting interval. In addition to imaging the arterial dimensions, Doppler ultrasound was used to concurrently measure SFA blood velocity. Doppler flow signals were corrected at an insonation angle of 60°, and the sample volume was placed in the middle of the artery. Diameter images and Doppler measurements of blood velocity were continuously recorded for 45 seconds at baseline prior to cuff inflation. The automatic blood pressure cuff was then rapidly inflated to 250 mmHg and maintained for 5 minutes until cuff deflation. Diameter and blood velocity recordings resumed prior to cuff deflation and continued for 5 minutes after deflation. Ultrasound images were continuously recorded at 5 frames•s^-1 with […] (TechSmith, Okemos, Mich., USA), and stored as .avi files. This procedure was repeated hourly across the sitting intervals. Off-line analysis of diameters was performed using automated edge-detection software (Brachial Analyzer, Medical Imaging Applications LLC, Coralville, IA, USA). This software allows the technician to determine a region of interest where the near and far vessel walls are most clear. The vessel wall borders are then detected using an optimal graph search-based segmentation that uses a combination of pixel density and image gradient as an objective function. All analyzed images were reviewed by the technician and edited when needed to ensure that diameter measurements were always determined from the intima-lumen interface at the near and far vessel wall. Blood velocities were determined using the systems and methods described herein after automated selection of the blood flow envelop throughout the measurement. The velocity-time integral was used to calculate the mean blood velocity for each cardiac cycle. Diameters and blood velocities were not ECG-gated. The peak dilation after cuff deflation was determined using the highest 3-s moving average and was presented as a percentage change from baseline diameter (FMD %). SFA shear rate was used as an estimate of arterial shear stress and was calculated for each FMD % at baseline and during the post occlusion period using the following formula: 4•Vm•D-1 where Vm is mean blood velocity (cm• s-1) and D is mean arterial diameter (cm). All measurements and analysis were performed by a single researcher (ST) who was blinded to the participant identity and treatment condition for each image file.

SFA endothelial function = assay: Superficial femoral artery flow mediated dilation (SFA FMD) during 3 hours of sitting, SIT vs VIT trial; assay type: in vivo, human; settings: oral Vitamin C 1 g at 30 minutes and 500 mg at 1 hour 30 minutes, different at 1 hour (p=0.009), 2 hours (p=0.016), 3 hours (p=0.004)
Experimental: Two screening visits and two sitting trials in random sequence, one with uninterrupted sitting (SIT) and one with oral Vitamin C during the sitting time (VIT) were conducted. Specifically, SIT represents prolonged 3 hours of sitting. VIT represents prolonged sitting with intermittent vitamin C. Flow mediated dilation (FMD) was measured at 0, 1, 2 and 3 hours. Subjects ingested 1 g vitamin C at 30 minutes and 500 mg at 1 hour 30 minutes. Subjects arrived at the laboratory after an overnight fast of at least 6 hours between 7:00 AM and 9:00 AM. The arrival time was matched for both trials within each subject. […] Subjects were allowed to move their arms, not vigorously, for example to use a computer or do light reading during the non-testing periods of the trials. Arm movement was not quantified. The flow mediated dilation (FMD) and other vascular function parameters were measured at baseline, 1 hour, 2 hours and 3 hours into testing. […] Endothelial function was measured using SFA FMD, measured in accordance with current guidelines. […] Diameter images and Doppler measurements of blood velocity were continuously recorded for 45 seconds at baseline prior to cuff inflation. […] Ultrasound images were continuously recorded at 5 frames•s^-1 with […] […] Blood velocities were determined using the systems and methods described herein after automated selection of the blood flow envelop throughout the measurement. […]

[2] = 1 hr, oral Vitamin C 1 g at 30 minutes
[3] = 2 hr, oral Vitamin C 1 g at 30 minutes and 500 mg at 1 hour 30 minutes
[4] = 3 hr, oral Vitamin C 1 g at 30 minutes and 500 mg at 1 hour 30 minutes
[5] = Baseline (0 hr), before Vitamin C ingestion, male subjects, sitting

## O=C1O[C@H]([C@@H](O)CO)C(O)=C1O [Vitamin C]
[1]; [2]
  Antegrade shear rate in the SFA: 8.58 ± 6.91 s⁻¹
  Mean shear rate in the SFA: 4.44 ± 4.23 s⁻¹
[1]; [3]
  Antegrade shear rate in the SFA: 6.56 ± 3.08 s⁻¹
  Mean shear rate in the SFA: 2.99 ± 2.6 s⁻¹
[1]; [4]
  Antegrade shear rate in the SFA: 6.22 ± 2.39 s⁻¹
  Mean shear rate in the SFA: 3.17 ± 2.14 s⁻¹
[1]; [5]
  Antegrade shear rate in the SFA: 7.03 ± 3.5 s⁻¹
  Mean shear rate in the SFA: 5.17 ± 7.54 s⁻¹
SFA endothelial function
  Effect on decline of SFA FMD % during sitting: prevented the decline in SFA FMD; also recorded: prevented the decline in endothelial function
SFA endothelial function; listed as VIT
  Effect on decline of SFA FMD % during sitting: preventing the decline of FMD

Source: patent publication US9750481B2, “System and method for analyzing antegrade and retrograde blood flow” (Indiana University Research and Technology Corporation, priority 2014, dated 2017)
